According to patent US20230241149A1, “TRANSTHYRETIN TETRAMER STABILIZING AGENT, AND PREVENTING AGENT OR PROGRESSION SUPPRESSING AGENT FOR TRANSTHYRETIN AMYLOIDOSIS” (KANEKA CORPORATION, priority 2020, published 2023):

Columns and labels:
transthyretin tetramer [1] = biological target: T1, transthyretin tetramer (Homo sapiens, UniProt P02766); test: Stabilization of transthyretin tetramer in serum ex vivo (Test Example 1; urea denaturation, electrophoresis and Western blotting); type: biochemical; set-up: from tissue; host or cells: human serum (blood of three middle-aged or older persons)
Procedure: The white circles represent the ratios in the serums added with the glabridin. The black circles represent the ratios in the serums added with the medium-chain fatty acid triglyceride solution containing a hydrophobic licorice extract.
Serums were obtained from blood taken from three middle-aged or older persons. The medium-chain fatty acid triglyceride solution containing a hydrophobic licorice extract and the glabridin that were obtained in Example 2 were added to each serum (added in such a manner that the amount of the glabridin was 0, 10, and 50 μM respectively). The resulting mixtures were incubated at 25° C. for 30 minutes, and then denatured with urea. Using these samples, the transthyretins (the tetramers and the monomers) in the blood were quantitated by electrophoresis and Western blotting. The stabilization effect was investigated using the ratio of the monomers to the tetramers (monomer/tetramer).

transthyretin tetramer [2] = biological target: T1, transthyretin tetramer; conditions: two molecules of glabridin per tetramer; cited from earlier work

CC1(C)C=Cc2c(ccc3c2OC[C@@H](c2ccc(O)cc2O)C3)O1 [glabridin]
ratio of the monomers to the tetramers (monomer/tetramer) (transthyretin tetramer [1]; serum from three middle-aged or older persons, glabridin added at concentrations up to 50 μM, 25° C. 30 minutes, then denatured with urea): did not change | stabilization effect of the transthyretin (decreasing the ratio of the monomers and increasing the tetramers) (transthyretin tetramer [1]; serum, added so that the amount of glabridin was 0, 10, 50 μM): not observed | effect on transthyretin tetramer and formation of amyloid fibrils (transthyretin tetramer [2]): binding to and stabilizing a transthyretin tetramer
